Source: patent US10076504B2, “Glucagon antagonists” (Ligand Pharmaceuticals, Inc., priority 2014, dated 2018)
Entries after “also recorded” stand apart in the source; their conditions may differ. Like-named read-outs stand apart in the source and are kept apart here.

Legend:
[1] = Liver microsome incubation; assay type: in vitro ADME, human
Description: (§1) The compound of Formula IIIa (below) was incubated for 60 minutes at 37 C with mouse, rat, dog, monkey, and human liver microsomes.
(§2) Concentrations of IIIa were measured at multiple time points by LC-MS/MS. IIIa was stable with predicted clearance well below hepatic blood flow in all species.

[2] = Liver microsome incubation; assay type: in vitro ADME, mouse
Description: as §1, §2

[3] = Liver microsome incubation; assay type: in vitro ADME, rat
Description: as §1, §2

[4] = Liver microsome incubation; assay type: in vitro ADME, monkey
Description: as §1, §2

[5] = Liver microsome incubation, statement for all species; assay type: in vitro ADME; settings: predicted clearance well below hepatic blood flow
Description: as §1, §2

[6] = Pharmacokinetics after oral and IV administration; assay type: in vivo; settings: IV Dose 1 mg/kg, PO Dose 3 mg/kg; for AUC(0-t) / Cmax / Tmax / clearance / half-life / Vd: plasma; for Vd: read-out: VSS
Description: (§3) Pharmacokinetics of IIIa were evaluated after both oral and IV administration in mice, rats, dogs, and monkeys.

[7] = Excretion experiments in rats; assay type: in vivo, rat
Description: as §3

[8] = Single ascending dose study, pharmacokinetics; assay type: in vivo, human; settings: for AUC(0-inf) / Cmax / Tmax / half-life: human, plasma, po; for time to peak plasma concentrations: post dose
Description: (§4) Oral doses of IIIa were administered to normal healthy volunteers (NHV) and subjects with type 2 diabetes mellitus (T2DM). A single center, randomized, double-blind, placebo-controlled single ascending dose study was done in both NHV (n=48) and T2DM subjects (n=8). Dose escalation only occurred after review of safety and tolerability data from previous dose levels (n=8/cohort; 2-placebo & 6-IIIa). Dosing of the T2DM cohort was initiated only after the equivalent dose had been administered to NHV and safety data had been reviewed. All subjects were administered IIIa in the morning after an overnight fast with the exception of the NHV in the 40 mg cohort. NHV subjects in the 40 mg cohort initially received IIIa in a fasted state. Following a 3 week washout period, IIIa was readministered after breakfast at 40 mg to determine the effects of food consumption on pharmacokinetics.
This was a single center, randomized, double-blind, placebo-controlled single ascending dose study in both normal healthy volunteers (NHV) (n=48) and subjects with type 2 diabetes mellitus (T2DM) (n=8). All subjects were administered Formula IIIa as a solution formulated with Captisol® after an overnight fast with the exception of the NHV in the 40 mg cohort. The NHV 40 mg cohort initially received Formula IIIa in a fasted state. Following a washout period, subjects received 40 mg Formula IIIa after breakfast to explore the effects of food consumption on pharmacokinetics.
Plasma levels of Formula IIIa were measured by validated LC-MS/MS method. Formula IIIa was well absorbed after oral administration with peak plasma concentrations reached approximately 5-8 hours post dose. Consistent with preclinical predictions, clearance was slow and Formula IIIa was not detected in the urine.

[9] = tested on: fasting plasma glucose; assay: Single ascending dose study, pharmacodynamics; assay type: in vivo, human
Description: as §4
Formula IIIa was well-absorbed after oral administration; peak plasma concentrations were reached approximately 5 to 8 hours post dose with a long elimination half-life of about 50 hours. Such data supports, for example, once-daily dosing of Formula III. The effects of Formula IIIa on fasting and post-prandial plasma glucose, glucagon, insulin, and glucagon-like peptide-1 (GLP-1) were evaluated in NH and T2DM subjects, and a meal tolerance test (MTT) and continuous glucose monitoring (CGM) were performed in T2DM subjects. […] The decrease in glucose was most obvious in the fasting plasma glucose (FPG) levels 24 and 48 hours post-dose. The magnitude of decrease in FPG was greater in subjects with T2DM than in NH subjects.

[10] = human subjects, oral administration
[11] = 40 mg, Diabetic, 40 mg oral, Fasted
[12] = 40 mg, Normal healthy volunteer, 40 mg oral, Fasted
[13] = 40 mg, Normal healthy volunteer, 40 mg oral, Fed
[14] = T2DM subjects, single dose 40 mg

## Cc1cc(C)c(-c2ccc(NC(=O)[C@H](Cc3ccc(C(=O)NCCS(=O)(=O)O)cc3)c3ccc(-c4ccc(C(C)(C)C)cc4)cc3)cc2)c(C)c1 [IIIa]
[1]; Human liver microsomes, 60 minutes at 37 C
  1st-order kinetic rate constant: 0.0021 min⁻¹
[1]; Human, from liver microsomes
  Predicted systemic clearance: 3.18 mL/min/kg body weight
[2]; Mouse liver microsomes, 60 minutes at 37 C
  1st-order kinetic rate constant: 0.0017 min⁻¹
[2]; Mouse, from liver microsomes
  Predicted systemic clearance: 7.05 mL/min/kg body weight
[3]; Rat liver microsomes, 60 minutes at 37 C
  1st-order kinetic rate constant: 0.0058 min⁻¹
[3]; Rat, from liver microsomes
  Predicted systemic clearance: 13.8 mL/min/kg body weight
[4]; Monkey liver microsomes, 60 minutes at 37 C
  1st-order kinetic rate constant: 0.0057 min⁻¹
[4]; Monkey, from liver microsomes
  Predicted systemic clearance: 11.9 mL/min/kg body weight
[5]
  stability in liver microsomes: stable
[6]; Dog
  F: 54%
  AUC(0-t): 225000 ng·h/mL
  Cmax: 10900 ng/mL
  Tmax: 4 h
  clearance: 0.07 mL/min/kg
  half-life: 46 h
  Vd: 0.24 L/kg
[6]; Monkey
  F: 21%
  AUC(0-t): 9850 ng·h/mL
  Cmax: 1250 ng/mL
  Tmax: 4 h
  clearance: 1.13 mL/min/kg
  half-life: 16.2 h
  Vd: 0.16 L/kg
[6]; Mouse
  F: 47%
  AUC(0-t): 16300 ng·h/mL
  Cmax: 1710 ng/mL
  Tmax: 6 h
  clearance: 22.2 mL/min/kg
  half-life: 5.9 h
  Vd: 0.62 L/kg
[6]; Rat
  F: 36%
  AUC(0-t): 7600 ng·h/mL
  Cmax: 1330 ng/mL
  Tmax: 2 h
  clearance: 2.33 mL/min/kg
  half-life: 10.9 h
  Vd: 0.3 L/kg
[7]
  levels detected in the urine: negligible
  route of excretion: primarily excreted in the bile
[8]; 40 mg
  pharmacokinetics in healthy volunteers vs diabetic subjects: comparable
[8]; 40 mg, healthy volunteers, fasted vs after breakfast
  effect of food on pharmacokinetics: comparable
[8]; 2 to 480 mg oral, human subjects
  plasma exposure versus dose: Dose dependent increases
[8]; Diabetic, 40 mg oral, Fasted
  CL/F: 1.32 L/h
[8]; Normal healthy volunteer, 40 mg oral, Fasted
  CL/F: 1.33 L/h
[8]; Normal healthy volunteer, 40 mg oral, Fed
  CL/F: 1.67 L/h
[8]; human subjects
  absorption after oral administration: well absorbed
[8]; [10]
  clearance: slow
  detection in the urine: not detected
[8]; human subjects, listed as Formula IIIa
  absorption after oral administration: well absorbed; also recorded: well-absorbed
[8]; [11]
  AUC(0-inf): 33700 ng·h/mL
  Cmax: 1420 ng/mL
  Tmax: 7.5 h
[8]; 40 mg, Diabetic, 40 mg oral, Fasted, read-out: t1/2 (converted)
  half-life: 58.5 h
[8]; [12]
  AUC(0-inf): 32700 ng·h/mL
  Cmax: 893 ng/mL
  Tmax: 8.4 h
[8]; 40 mg, Normal healthy volunteer, 40 mg oral, Fasted, read-out: t1/2 (converted)
  half-life: 51.6 h
[8]; [13]
  AUC(0-inf): 25200 ng·h/mL
  Cmax: 779 ng/mL
  Tmax: 7.2 h
[8]; 40 mg, Normal healthy volunteer, 40 mg oral, Fed, read-out: t1/2 (converted)
  half-life: 53.8 h
[8]; oral administration, NH and T2DM subjects, read-out: elimination half-life (converted)
  half-life: ~50 h
[8]; oral administration, human subjects
  time to peak plasma concentrations: 5 to 8 h
[8]; oral administration, human subjects, listed as Formula IIIa
  time to peak plasma concentrations: 5 to 8 h
[9]; NH subjects
  glucose levels: small decreases in glucose levels approximating dose-dependency
[9]; NH subjects, dose-dependent up to 240 mg, 24 to 96 hours post-dose
  mean glucagon and total GLP-1 levels: increased
[9]; T2DM subjects
  glucose levels: lowered glucose levels
[9]; T2DM subjects, single dose
  duration of glucose suppression: continued through 48 hours
[9]; [14]
  lowering of fasting plasma glucose: 50 mg/dL
  lowering of fasting plasma glucose, placebo adjusted: 57 mg/dL
[9]; all dose groups, single dose
  changes in active GLP-1 or insulin levels: did not generate a consistent trend
[9]; normal healthy volunteers
  duration of glucose suppression: continued through 48 hours
[9]; normal healthy volunteers, single dose 2 to 480 mg
  fasting plasma glucose: lowered fasting plasma glucose
[9]; subjects with T2DM
  24-hour glucose AUC (continuous glucose monitoring): reduction
[9]; subjects with T2DM, compared to placebo, 24 to 72 hours post-dose
  mean glucagon and total GLP-1 levels: increased compared to placebo treatment
